Source: patent US6610715B1, “Cathecol hydrazone derivatives, process for preparing the same and pharmaceutical composition containing the same” (Cheil Jedang Corporation, priority 2001, dated 2003)

Tested on: Phosphodiesterase IV partially purified from human U937 cells
Test: Inhibition of Phosphodiesterase IV Activity ([3H]cAMP hydrolysis, scintillation counting)
Type: biochemical
Settings: 1.0 uM cAMP, 30° C., 20 minutes
Method: Compounds prepared by Examples 1 through 16 and Rolipram as control were tested on the inhibition of phosphodiesterase IV.
Phosphodiesterase IV partially purified from human U937 cells, test compound and 1.0 uM cAMP including 0.01 uM[^3H]cAMP were incubated at 30° C. for 20 minutes. The PDE reaction to convert cAMP into AMP was […] by boiling the reaction solution for 2 minutes. AMP was converted into adenosine by adding snake venom nucleotidase and incubating the reaction solution at 30° C. for 10 minutes. While unhydrolyzed cAMPs were bonded to AG1-X2 resin, the [^3H]adenosine in the aqueous solution was quantified by scintillation counting. The results are shown in Table I below, in which the values indicate inhibition (%) of the PDE IV by each test compound.

[1] = test compound concentration 2 uM
[2] = test compound concentration 20 uM

SMILES | Inhibition (%) of the PDE IV [1] | Inhibition (%) of the PDE IV [2]
COc1ccc(/C=N/NC2=NCCN2)cc1OC1CCCC1 [EXAMPLE 6, (E)-3-cyclopentyloxy-4-methoxybenzaldehyde 2-imidazolinohydrazone] | 31.7% | 58.3%
COc1ccc(/C=N/NC(=O)c2ccncc2)cc1OC1CCCC1 [EXAMPLE 1, (E)-3-cyclopentyloxy-4-methoxybenzaldehyde isonicotinic hydrazone] | 38.4% | 66.7%
COc1ccc(/C=N/NC(C)=O)cc1OC1CCCC1 [EXAMPLE 4, (E)-3-cyclopentyloxy-4-methoxybenzaldehyde acetic hydrazone] | 51.7% | 72.1%
COc1ccc(/C=N/Nc2ccccc2)cc1OC1CCCC1 [EXAMPLE 3, (E)-3-cyclopentyloxy-4-methoxybenzaldehyde phenylhydrazone] | 46.6% | 80.4%
CCOC(=O)N/N=C/c1ccc(OC)c(OC2CCCC2)c1 [EXAMPLE 2, (E)-ethyl[(3-cyclopentyloxy-4-methoxyphenyl)methylene]hydrazinoformate] | 46.7% | 63.7%
COc1ccc(C2CNC(=O)C2)cc1OC1CCCC1 (stereo not shown) [Rolipram, reference compound] | 62.5% | 70.1%
COc1ccc(/C=N/N2CCCCC2)cc1OC1CCCC1 [EXAMPLE 13, (E)-N-piperidino-3-cyclopentyloxy-4-methoxyphenylmethaneimine] | 31.4% | 73.3%
COc1ccc(/C=N/NC(=O)C[N+](C)(C)C)cc1OC1CCCC1 [EXAMPLE 11, (E)-2[(3-cyclopentyloxy-4-methoxyphenyl)methylene]hydrazinecarbonylmethyl(trimethyl)ammonium chloride] | 43.3% | 45.1%
COc1ccc(/C=N/NC(=N)N)cc1OC1CCCC1 [EXAMPLE 14, (E)-2-[(3-cyclopentyloxy-4-methoxyphenyl)methylene]hydrazinecarboximidamide] | 14.7% | 57.7%
COc1ccc(/C=N/Nc2ccccc2C(=O)O)cc1OC1CCCC1 [EXAMPLE 16, (E)-3-cyclopentyloxy-4-methoxybenzaldehyde 2-carboxyphenylhydrazone] | 42.3% | 76.6%
COc1ccc(/C=N/NC(N)=O)cc1OC1CCCC1 [EXAMPLE 7, (E)-2-[(3-cyclopentyloxy-4-methoxyphenyl)methylene]hydrazinecarboxamide] | 66.2% | 89.7%
COc1ccc(/C=N/NC(N)=S)cc1OC1CCCC1 [EXAMPLE 9, (E)-2-[(3-cyclopentyloxy-4-methoxyphenyl)methylene]hydrazinecarbothioamide] | 69.0% | 81.0%
COc1ccc(/C=N/Nc2ccc(Cl)cc2)cc1OC1CCCC1 [EXAMPLE 10, (E)-3-cyclopentyloxy-4-methoxybenzaldehyde 4chlorophenylhydrazone] | 39.3% | 70.7%
COc1ccc(/C=N/Nc2ccccn2)cc1OC1CCCC1 [EXAMPLE 15, (E)-3-cyclopentyloxy-4-methoxybenzaldehyde 2-pyridinylhydrazone] | 49.4% | 63.6%
